Experimental data taken from patent US10131652B2, “Pyrimidinyloxy benzene derivatives as herbicides” (E. I. DU PONT DE NEMOURS AND COMPANY, priority 2014, dated 2018).

Assays:
Assay in all cases: Test D pre-/postemergence plant response
Assay type in all cases: in vivo
[1] = test system: Italian ryegrass (Lolium multiflorum); conditions: Postemergence
Summary of the method: (§1)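 Plants are held in a greenhouse 13 to 15 days after spraying, then injury is rated by eye relative to controls on a 0 to 100 scale. Treatments are preemergence on freshly sown loam/sand pots or postemergence at 1- to 4-leaf stage in peat-based medium; surfactant-containing solvent formulation.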

[2] = test system: barnyardgrass (Echinochloa crus-galli); conditions: Postemergence; for Plant response rating, Barnyardgrass: scale 0 to 100, 0 no effect, 100 complete control
Summary of the method: as §1

[3] = test system: blackgrass (Alopecurus myosuroides); conditions: Postemergence; for Plant response rating, Blackgrass: scale 0 to 100, 0 no effect, 100 complete control
Summary of the method: as §1

corn (Zea mays) = conditions: Postemergence; for Plant response rating, Corn: scale 0 to 100, 0 no effect, 100 complete control
Summary of the method: as §1

[4] = test system: galium (catchweed bedstraw, Galium aparine); conditions: Postemergence; for Plant response rating, Galium: scale 0 to 100, 0 no effect, 100 complete control
Summary of the method: as §1

[5] = test system: giant foxtail (Setaria faberii); conditions: Postemergence; for Plant response rating, Foxtail, Giant: scale 0 to 100, 0 no effect, 100 complete control
Summary of the method: as §1

[6] = test system: johnsongrass (Sorghum halepense); conditions: Postemergence; for Plant response rating, Johnsongrass: scale 0 to 100, 0 no effect, 100 complete control
Summary of the method: as §1

[7] = test system: lambsquarters (Chenopodium album); conditions: Postemergence
Summary of the method: as §1

[8] = test system: large (Lg) crabgrass (Digitaria sanguinalis); conditions: Postemergence; for Plant response rating, Crabgrass, Large: scale 0 to 100, 0 no effect, 100 complete control
Summary of the method: as §1

[9] = test system: morningglory (Ipomoea coccinea); conditions: Postemergence
Summary of the method: as §1

[10] = test system: oilseed rape (Brassica napus); conditions: Postemergence
Summary of the method: as §1

[11] = test system: pigweed (Amaranthus retroflexus); conditions: Postemergence
Summary of the method: as §1

[12] = test system: ragweed (common ragweed, Ambrosia elatior); conditions: Postemergence
Summary of the method: as §1

soybean (Glycine max) = conditions: Postemergence
Summary of the method: as §1

[13] = test system: velvetleaf (Abutilon theophrasti); conditions: Postemergence
Summary of the method: as §1

[14] = test system: waterhemp (common waterhemp, Amaranthus rudis); conditions: Postemergence
Summary of the method: as §1

[15] = test system: winter wheat (Triticum aestivum); conditions: Postemergence
Summary of the method: as §1

[16] = test system: yellow nutsedge (Cyperus esculentus); conditions: Postemergence
Summary of the method: as §1

[17] = 31 g ai/ha, scale 0 to 100 (0 no effect, 100 complete control)
[18] = 62 g ai/ha, scale 0 to 100, 0 no effect, 100 complete control
[19] = 125 g ai/ha, scale 0 to 100, 0 no effect, 100 complete control

FC(F)c1cc(-c2ccccc2Oc2ncc(Br)cn2)on1 [Compound 212]
70: Soybean plant response rating (soybean (Glycine max); [17])
40: Plant response rating (scale 0 to 100), Lambsquarters ([7]; 16 g ai/ha) | Ragweed plant response rating [12, 17]
35: Plant response rating, Oilseed Rape [10, 19] | Plant response rating (scale 0 to 100), Ragweed ([12]; 16 g ai/ha)
5: Plant response rating, Ryegrass, Italian [1, 19] | Plant response rating (scale 0 to 100), Barnyardgrass ([2]; 16 g ai/ha) | Barnyardgrass plant response rating [2, 17] | Plant response rating (scale 0 to 100), Corn (corn (Zea mays); 16 g ai/ha) | Corn plant response rating (corn (Zea mays); [17]) | Plant response rating (scale 0 to 100), Johnsongrass ([6]; 16 g ai/ha) | Johnsongrass plant response rating [6, 17] | Plant response rating (scale 0 to 100), Crabgrass, Large ([8]; 16 g ai/ha) | Wheat plant response rating [15, 17] | Wheat plant response rating [15, 18] | Nutsedge, Yellow plant response rating [16, 17] | Plant response rating, Nutsedge, Yellow [16, 19]
90: Plant response rating, Soybean (soybean (Glycine max); [19]) | Plant response rating, Velvetleaf [13, 19]
25: Plant response rating, Barnyardgrass ([2]; 125 g ai/ha)
20: Plant response rating, Johnsongrass ([6]; 62 g ai/ha) | Plant response rating, Johnsongrass ([6]; 125 g ai/ha) | Oilseed Rape plant response rating [10, 18] | Plant response rating (scale 0 to 100), Velvetleaf ([13]; 16 g ai/ha)
100: Plant response rating (scale 0 to 100), Pigweed ([11]; 16 g ai/ha) | Pigweed plant response rating [11, 17] | Pigweed plant response rating [11, 18] | Plant response rating, Pigweed [11, 19] | Waterhemp plant response rating [14, 18] | Plant response rating, Waterhemp [14, 19]
65: Plant response rating, Galium ([4]; 62 g ai/ha)
75: Plant response rating (scale 0 to 100), Morningglory ([9]; 16 g ai/ha) | Morningglory plant response rating [9, 18]
80: Plant response rating, Galium ([4]; 125 g ai/ha) | Lambsquarters plant response rating [7, 17] | Plant response rating (scale 0 to 100), Waterhemp ([14]; 16 g ai/ha)
85: Soybean plant response rating (soybean (Glycine max); [18])
15: Plant response rating, Barnyardgrass ([2]; 62 g ai/ha) | Plant response rating, Corn (corn (Zea mays); 125 g ai/ha) | Plant response rating, Foxtail, Giant ([5]; 62 g ai/ha) | Plant response rating, Crabgrass, Large ([8]; 125 g ai/ha) | Plant response rating, Wheat [15, 19]
10: Plant response rating, Blackgrass ([3]; 125 g ai/ha) | Plant response rating, Corn (corn (Zea mays); 62 g ai/ha) | Plant response rating (scale 0 to 100), Foxtail, Giant ([5]; 16 g ai/ha) | Foxtail, Giant plant response rating [5, 17] | Plant response rating, Foxtail, Giant ([5]; 125 g ai/ha) | Crabgrass, Large plant response rating [8, 17] | Plant response rating, Crabgrass, Large ([8]; 62 g ai/ha) | Plant response rating (scale 0 to 100), Oilseed Rape ([10]; 16 g ai/ha) | Plant response rating (scale 0 to 100), Nutsedge, Yellow ([16]; 16 g ai/ha) | Nutsedge, Yellow plant response rating [16, 18]
98: Lambsquarters plant response rating [7, 18] | Plant response rating, Lambsquarters [7, 19] | Morningglory plant response rating [9, 17] | Plant response rating, Morningglory [9, 19] | Waterhemp plant response rating [14, 17]
0: Plant response rating (scale 0 to 100), Ryegrass, Italian ([1]; 16 g ai/ha) | Ryegrass, Italian plant response rating [1, 17] | Ryegrass, Italian plant response rating [1, 18] | Plant response rating (scale 0 to 100), Blackgrass ([3]; 16 g ai/ha) | Blackgrass plant response rating [3, 17] | Plant response rating, Blackgrass ([3]; 62 g ai/ha) | Plant response rating (scale 0 to 100), Wheat ([15]; 16 g ai/ha)
50: Velvetleaf plant response rating [13, 17]
55: Ragweed plant response rating [12, 18]
60: Plant response rating (scale 0 to 100), Galium ([4]; 16 g ai/ha) | Galium plant response rating [4, 17] | Plant response rating, Ragweed [12, 19] | Plant response rating (scale 0 to 100), Soybean (soybean (Glycine max); 16 g ai/ha) | Velvetleaf plant response rating [13, 18]

CC(F)(F)c1cc(-c2ccccc2Oc2ncc(Cl)cn2)no1 [Compound 220]
10: Plant response rating (scale 0 to 100), Barnyardgrass ([2]; 8 g ai/ha) | Plant response rating (scale 0 to 100), Barnyardgrass ([2]; 16 g ai/ha) | Plant response rating (scale 0 to 100), Oilseed Rape ([10]; 16 g ai/ha) | Plant response rating (scale 0 to 100), Soybean (soybean (Glycine max); 4 g ai/ha) | Plant response rating (scale 0 to 100), Soybean (soybean (Glycine max); 8 g ai/ha) | Plant response rating (scale 0 to 100), Soybean (soybean (Glycine max); 16 g ai/ha) | Plant response rating (scale 0 to 100), Velvetleaf ([13]; 8 g ai/ha)
35: Plant response rating (scale 0 to 100), Morningglory ([9]; 2 g ai/ha)
80: Plant response rating (scale 0 to 100), Pigweed ([11]; 8 g ai/ha) | Plant response rating (scale 0 to 100), Waterhemp ([14]; 16 g ai/ha)
45: Plant response rating (scale 0 to 100), Lambsquarters ([7]; 4 g ai/ha)
15: Plant response rating (scale 0 to 100), Crabgrass, Large ([8]; 16 g ai/ha) | Plant response rating (scale 0 to 100), Morningglory ([9]; 4 g ai/ha) | Plant response rating (scale 0 to 100), Ragweed ([12]; 4 g ai/ha) | Plant response rating (scale 0 to 100), Ragweed ([12]; 8 g ai/ha) | Plant response rating (scale 0 to 100), Soybean (soybean (Glycine max); 2 g ai/ha) | Plant response rating (scale 0 to 100), Velvetleaf ([13]; 4 g ai/ha) | Plant response rating (scale 0 to 100), Waterhemp ([14]; 2 g ai/ha)
5: Plant response rating (scale 0 to 100), Barnyardgrass ([2]; 2 g ai/ha) | Plant response rating (scale 0 to 100), Barnyardgrass ([2]; 4 g ai/ha) | Plant response rating (scale 0 to 100), Blackgrass ([3]; 16 g ai/ha) | Plant response rating (scale 0 to 100), Corn (corn (Zea mays); 4 g ai/ha) | Plant response rating (scale 0 to 100), Corn (corn (Zea mays); 8 g ai/ha) | Plant response rating (scale 0 to 100), Corn (corn (Zea mays); 16 g ai/ha) | Plant response rating (scale 0 to 100), Foxtail, Giant ([5]; 4 g ai/ha) | Plant response rating (scale 0 to 100), Foxtail, Giant ([5]; 8 g ai/ha) | Plant response rating (scale 0 to 100), Foxtail, Giant ([5]; 16 g ai/ha) | Plant response rating (scale 0 to 100), Johnsongrass ([6]; 16 g ai/ha) | Plant response rating (scale 0 to 100), Lambsquarters ([7]; 8 g ai/ha) | Plant response rating (scale 0 to 100), Crabgrass, Large ([8]; 2 g ai/ha) | Plant response rating (scale 0 to 100), Crabgrass, Large ([8]; 4 g ai/ha) | Plant response rating (scale 0 to 100), Crabgrass, Large ([8]; 8 g ai/ha) | Plant response rating (scale 0 to 100), Oilseed Rape ([10]; 4 g ai/ha) | Plant response rating (scale 0 to 100), Oilseed Rape ([10]; 8 g ai/ha) | Plant response rating (scale 0 to 100), Ragweed ([12]; 2 g ai/ha) | Plant response rating (scale 0 to 100), Velvetleaf ([13]; 2 g ai/ha) | Plant response rating (scale 0 to 100), Nutsedge, Yellow ([16]; 16 g ai/ha)
25: Plant response rating (scale 0 to 100), Morningglory ([9]; 8 g ai/ha) | Plant response rating (scale 0 to 100), Ragweed ([12]; 16 g ai/ha) | Plant response rating (scale 0 to 100), Velvetleaf ([13]; 16 g ai/ha)
0: Plant response rating (scale 0 to 100), Ryegrass, Italian ([1]; 2 g ai/ha) | Plant response rating (scale 0 to 100), Ryegrass, Italian ([1]; 4 g ai/ha) | Plant response rating (scale 0 to 100), Ryegrass, Italian ([1]; 8 g ai/ha) | Plant response rating (scale 0 to 100), Ryegrass, Italian ([1]; 16 g ai/ha) | Plant response rating (scale 0 to 100), Blackgrass ([3]; 2 g ai/ha) | Plant response rating (scale 0 to 100), Blackgrass ([3]; 4 g ai/ha) | Plant response rating (scale 0 to 100), Blackgrass ([3]; 8 g ai/ha) | Plant response rating (scale 0 to 100), Corn (corn (Zea mays); 2 g ai/ha) | Plant response rating (scale 0 to 100), Foxtail, Giant ([5]; 2 g ai/ha) | Plant response rating (scale 0 to 100), Johnsongrass ([6]; 2 g ai/ha) | Plant response rating (scale 0 to 100), Johnsongrass ([6]; 4 g ai/ha) | Plant response rating (scale 0 to 100), Johnsongrass ([6]; 8 g ai/ha) | Plant response rating (scale 0 to 100), Oilseed Rape ([10]; 2 g ai/ha) | Plant response rating (scale 0 to 100), Wheat ([15]; 2 g ai/ha) | Plant response rating (scale 0 to 100), Wheat ([15]; 4 g ai/ha) | Plant response rating (scale 0 to 100), Wheat ([15]; 8 g ai/ha) | Plant response rating (scale 0 to 100), Wheat ([15]; 16 g ai/ha) | Plant response rating (scale 0 to 100), Nutsedge, Yellow ([16]; 2 g ai/ha) | Plant response rating (scale 0 to 100), Nutsedge, Yellow ([16]; 4 g ai/ha) | Plant response rating (scale 0 to 100), Nutsedge, Yellow ([16]; 8 g ai/ha)
70: Plant response rating (scale 0 to 100), Lambsquarters ([7]; 16 g ai/ha) | Plant response rating (scale 0 to 100), Pigweed ([11]; 2 g ai/ha) | Plant response rating (scale 0 to 100), Waterhemp ([14]; 8 g ai/ha)
50: Plant response rating (scale 0 to 100), Galium ([4]; 2 g ai/ha) | Plant response rating (scale 0 to 100), Galium ([4]; 4 g ai/ha)
55: Plant response rating (scale 0 to 100), Galium ([4]; 8 g ai/ha) | Plant response rating (scale 0 to 100), Lambsquarters ([7]; 2 g ai/ha)
85: Plant response rating (scale 0 to 100), Pigweed ([11]; 16 g ai/ha)
60: Plant response rating (scale 0 to 100), Galium ([4]; 16 g ai/ha) | Plant response rating (scale 0 to 100), Waterhemp ([14]; 4 g ai/ha)
75: Plant response rating (scale 0 to 100), Morningglory ([9]; 16 g ai/ha) | Plant response rating (scale 0 to 100), Pigweed ([11]; 4 g ai/ha)
